Patent US5834452A, “1- or 6-hydroxylated steroids” (Roussel Uclaf, priority 1996, dated 1998)

Key:
[1] = molecular target: T1, Human estrogen receptor (HOR) (Homo sapiens, UniProt P03372); assay: Relative bond affinity (RBA), recombinant human estrogen receptor, charcoal dextran technique; type: binding; conditions: 24 h at 0° C., Estradiol = 100
T1 construct: made in house; host or cells: SF9 insect cells (baculovirus), lysate supernatant
T1 sequence (P03372 1-595): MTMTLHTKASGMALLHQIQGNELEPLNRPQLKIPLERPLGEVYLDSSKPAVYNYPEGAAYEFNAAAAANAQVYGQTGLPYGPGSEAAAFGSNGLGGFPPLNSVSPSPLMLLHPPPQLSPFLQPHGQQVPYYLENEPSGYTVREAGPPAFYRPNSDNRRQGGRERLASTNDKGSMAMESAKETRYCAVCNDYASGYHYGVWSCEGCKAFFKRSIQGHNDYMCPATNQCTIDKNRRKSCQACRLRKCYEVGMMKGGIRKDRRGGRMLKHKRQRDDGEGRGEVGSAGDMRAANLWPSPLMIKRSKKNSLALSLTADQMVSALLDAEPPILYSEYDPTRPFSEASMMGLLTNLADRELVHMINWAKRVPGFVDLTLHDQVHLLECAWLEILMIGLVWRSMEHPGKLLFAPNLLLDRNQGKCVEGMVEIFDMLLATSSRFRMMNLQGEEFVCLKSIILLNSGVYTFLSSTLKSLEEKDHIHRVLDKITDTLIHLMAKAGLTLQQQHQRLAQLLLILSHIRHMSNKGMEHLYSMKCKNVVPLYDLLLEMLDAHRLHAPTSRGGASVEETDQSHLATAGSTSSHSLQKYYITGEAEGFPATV
Source text: The human recombinant receptor (HGR, HPR, HAR, HMR, HER) was used.
Human estrogen receptor (HOR):
A supernatant of SF9 cells containing the recombinant human estrogen receptor was obtained by the process described above for the progestogen receptor using the cDNA fragment described in the expression vector HEGO by Tora et al (The EMBO Journal, (1989), Vol. 8 No. 7, p. 1981-1986) containing the region coding for the human estrogen receptor of "wild type" with a glycine in position 400. The cells obtained were lysed in the lysis buffer (1).
The supernatant was incubated at 0° C. for 24 hours with a constant concentration (T) of tritiated estradiol in the presence of increasing concentrations of either unlabelled estradiol (0-1000×10^-9 M), or the unlabelled product to be tested (1 to 25000×10^-9 M). The concentration of bound tritiated estradiol (B) was then measured in each incubate using the charcoal dextran adsorption technique.
Calculation of the relative bond affinity (RBA).
The following two curves were drawn: the percentage of bound tritiated hormone B/BO as a function of the logarithm of the concentration of unlabelled reference hormone or as a function of the logarithm of the concentration of unlabelled test product. The straight line of the following equation was determined: […]
The intersections of the straight line I50 and the curves allowed the evaluation of the concentrations of unlabelled reference hormone (CH) and of the unlabelled test product (CX) which inhibited by 50% the specific binding of the tritiated hormone on the receptor.
The relative bond affinity (RBA) of the test product was determined by the equation:
The RBA's of reference products Estradiol, Progesterone Dexamethasone, Testosterone and Aldosterone were arbitrarily taken as being equal to 100.

[2] = tested on: endometrial proliferation (uterine lace); assay: Progestomimetic activity: endometrial transformation in the rabbit (Clauberg-McPhail test); type: in vivo; parameters: key to Maximal activity on the uterine lace (McPhail index) / Average uterine lace (McPhail Index): McPhail scale 0–4 with 0.5 steps (endometrial proliferation); conditions: for Average uterine lace (McPhail Index): s/c, day 8 to day 11
Procedure: 2. --Determination of the progestomimetic activity of the products of the invention: Endometrial transformation in the rabbit. The animals used were impuberal female rabbits which were 40-45 days old. The animals were treated with estradiol (5 ug/0.2 ml/rabbit in solution of corn oil, 10% ethanol) by subcutaneous route from day 1 to day 5, then the product to be studied was administered from day 8 to day 11. On day 12, the animals were sacrificed and a median portion of each uterine cornua was removed from each animal and fixed in Bouin's liquid for histological study. After fixing, the samples were dehydrated, included, cut, mounted, the paraffin was removed and then the sample was stained with hemalum-eosin-saffron. […] Then, for each of the cornua, a semi-quantitative evaluation of the endometrial proliferation (uterine lace) was carried out by the McPhail scale from 0 to 4 with 0.5 intermediates and the two figures were averaged. Similarly, the degree of hypertrophy of the cornua was evaluated by the same scale. At higher magnification, morphological observations of the mucous membrane or the myometrium could possibly be formulated. The 1-OH metabolite (product A) was tested at doses of 10, 100, 1000 μg/kg by subcutaneous route as well as orally at a dose of 1000 μg/kg. The 6-OH metabolite (product B) was tested at doses of 100, 1000 and 10000 μg/kg subcutaneously. As a control, progesterone was administered at doses of 100 and 1000 μg/kg by subcutaneous route. The averages were produced for the uterine lace (McPhail Index).

C[C@H](O)C(=O)[C@@]1(C)CC[C@H]2[C@@H]3C[C@@H](O)C4=CC(=O)CCC4=C3CC[C@@]21C [Product B, [6β, 17β-(S)]-6-hydroxy-17-(2-hydroxy-1-oxopropyl)-17-methyl-Δ^4,9-estradiene-3-one]
RBA, Human estrogen receptor [1]: 0 | RBA, Human estrogen receptor ([1]; listed as product B): zero | Average uterine lace (McPhail Index) ([2]; rabbit, 0,01 mg/kg): 1,4 | Average uterine lace (McPhail Index) ([2]; rabbit, 0,1 mg/kg): 2

C[C@H](O)C(=O)[C@@]1(C)CC[C@H]2[C@@H]3CCC4=CC(=O)CCC4=C3CC[C@@]21C [Trimegestone, [17β-(S)]-17-(2-hydroxy-1-oxopropyl)-17-methyl-Δ^4,9-estradiene-3-one, reference compound]
RBA, Human estrogen receptor [1]: 0 | RBA, Human estrogen receptor ([1]; listed as Trimegesterone): zero | minimal effective dose ([2]; Oryctolagus cuniculus, rabbit, note on this test, read-out: Dose from which progestomimetic activity starts): 1 µg/kg
